According to PubChem BioAssay AID2305 (GlaxoSmithKline (GSK), 2010):
pIC50: −log10 of the molar value.

The compounds below were run on P. falciparum 3D7 growth, pLDH absorbance (assay: P. falciparum 3D7 growth inhibition, dose response, strain 3D7 (AID 2305)).

Row | SMILES | pIC50
1 | Cc1cc(=O)[nH]c(-n2nc(C)cc2NC(=O)C2(c3ccc(Cl)cc3)CCCC2)n1 | 6.54
2 | COc1ccc2ncc(Cl)c(CCN3CC[C@@H](CNCc4cc5c(cn4)OCS5)C3)c2n1 | 6.09
3 | Oc1ccc(CN2CCC(NCc3cccc(C(F)(F)F)c3)CC2)cc1 | 6.17
4 | Fc1ccc2nc(-c3cccc(-c4cccc(CNCc5ccccc5)c4)c3)[nH]c2c1 | 6.55
5 | CC(C)Cc1nc(N2CCOCC2)c2nnn(Cc3ccccc3)c2n1 | 6.29
6 | Cc1cc(-c2ccc(NC(=O)N3CCc4cc(Br)c(N5CCN(C)CC5)cc43)cc2)ccc1C#N | 6.06
7 | O=C(/C=C/c1ccc(Cl)c(Cl)c1)N1CCC(CN2CCC(c3cn(CC(=O)N4CCCCC4)c4ccccc34)CC2)CC1 | 6.12
8 | CCn1cc(CN2C(=O)C(c3ccccc3)(c3ccccc3)N=C2N)cn1 | 6.09
9 | Cc1onc(-c2ccccc2)c1C(=O)Nc1nc(-c2ccccn2)nc2ccsc12 | 6.16
10 | Cc1ccc(C2CC(c3cccs3)=NN2C(=O)c2ccc(Br)o2)cc1 (stereo not given) | 6.05
11 | Cc1ccccc1C1CCN(C2CCC(NC(=O)c3ccc(-c4cccs4)s3)CC2)CC1 (stereo not given) | 5.99
12 | Cc1ccc(OCCCCONC(=O)c2ccccc2)cc1 | 6.82
13 | CCN(CC)S(=O)(=O)c1ccc(C=CC(=O)Nc2cc(Cl)ccc2N2CCOCC2)cc1 | 6.04
14 | N#Cc1ccc2c(c1)CCN(CCC1CCC(NC(=O)/C=C/c3nc4ccccc4s3)CC1)CC2 (stereo not given) | 6.08
15 | O=C(NCCCCN1CCC(c2ccc3c(c2OCCN2CCCC2=O)CCCC3)CC1)c1ccc(-c2ccc(C(F)(F)F)cc2)cc1 | 5.82
16 | CC[C@H]1CN2CC[C@@H]1C[C@H]2[C@H](O)c1cc(N2CCCC(C)(C)C2)nc2ccc(OC)cc12 | 6.47
17 | N#CCCN1CCN(Cc2ccc(-c3cccc(-c4nc5ccc(F)cc5[nH]4)c3)cc2)CC1 | 6.01
18 | O=C(NC1CCN(Cc2cccc(C(F)(F)F)c2)CC1)c1ccc(-c2cccc(Cl)c2)s1 | 5.95
19 | NC(=O)c1ccc(-c2ccc3ccnc(N)c3c2)cc1 | 6.38
20 | CNc1ccc(CNCc2ccc(-c3ccc(-c4nc5ccc(C(F)(F)F)cc5[nH]4)s3)cc2)cc1 | 6.74
21 | CCNc1cc(C(=O)N[C@@H](Cc2ccccc2Cl)[C@H](O)CNC(C)CCCC(C)C)cc(N2CCCCS2(=O)=O)c1 (stereo not given in full) | 6.03
22 | O=C(Nc1cccc(CN2CCCN(Cc3ccc(O)cc3)CC2)c1)c1ccc(Br)cc1 | 6.10
23 | Fc1ccc2[nH]c(-c3ccccc3)nc2c1CN1CCC(N2CCCC2)CC1 | 6.14
24 | Cc1cc(Nc2ccc(C)c(Cl)c2)n2nc(C(F)(F)F)nc2n1 | 7.70
25 | CCN(CC)CCNC(=O)c1ccc(NC(=O)c2cc(-c3ccncc3)nc3ccccc23)cc1 | 6.11

Row | SMILES | pIC50
26 | COc1ccc(Cl)cc1NC(=O)C(C)N1CCN(S(=O)(=O)c2ccccc2F)CC1 (stereo not given) | 6.17
27 | Cc1c(C(=O)[C@@H]2C[C@H]2CN2CCC(N3CCCCC3)CC2)sc2ccccc12 | 5.99
28 | CC(=O)c1ccc(O)c(CC(O)CO)c1 (stereo not given) | 6.14
29 | NCCCNc1nc(Nc2cccc(C(N)=O)c2)c2c(=O)[nH]ccc2n1 | 6.23
30 | COc1ccccc1NC(=O)Nc1ccc(-c2cccc(-c3nc4ccccc4[nH]3)c2)cc1 | 6.19
31 | CN(C)CCN(C)Cc1cccc(-c2cccc(NC(=O)c3cccc(C#N)c3)c2)c1 | 6.06
32 | COC(C(=O)OCCC1CCCN1C)(c1ccccc1)C1CCCCC1 (stereo not given) | 6.15
33 | COc1ccc(-c2nc(NC(=O)CSc3ccc([N+](=O)[O-])cc3)sc2C)cc1 | 6.85
34 | COc1ccc(NC(=O)[C@H](Cc2ccccc2)Nc2cc(C)nc(NCCOc3ccccc3)n2)cc1 | 5.97
35 | O=C(Nc1ccc([N+](=O)[O-])cc1O)Nc1ccccc1Oc1ccccc1 | 6.03
36 | CCCC(=O)NC(NC(=S)Nc1ccc([N+](=O)[O-])cc1)C(Cl)(Cl)Cl (stereo not given) | 5.99
37 | CS(=O)(=O)c1ccc2nc(NC(=O)c3csnn3)sc2c1 | 6.17
38 | Cc1ccc(-c2nnc3c4ccccc4c(C)nn23)cc1S(=O)(=O)N1CCN(CCO)CC1 | 6.17
39 | O=C(Nc1ccc(-n2ccc(C(F)(F)F)n2)cc1)c1cccs1 | 5.97
40 | CCCCC(=O)N(CCOC)Cc1ccc(-c2ccc(CNCCC)cn2)cc1 | 6.14
41 | COc1cccc(OC)c1C(=O)Nc1cccc(-c2nn3ccccc3c2-c2ccnc(Nc3cccc(F)c3)n2)c1 | 6.12
42 | Cc1cc(Nc2ncc(Cl)c(Nc3ccccc3C(N)=O)n2)n[nH]1 | 6.09
43 | O=C(NC1CCN(c2ccnc3cc(Cl)ccc23)C1)c1ccc(F)cc1 (stereo not given) | 6.72
44 | CCN1CCC(N(Cc2ccc(-c3ccc(C(F)(F)F)cc3)cc2)C(=O)Cn2c(CCc3cccc(F)c3F)cc(=O)c3c2CCCC3)CC1 | 6.12
45 | Cc1nc2ccccc2n1C1C[C@H]2CC[C@@H](C1)N2Cc1nccn1-c1ccccc1 (stereo not given in full) | 6.43
46 | Cc1cc2ccccc2n1CC(=O)N1CC(C(=O)N2CCCCC2)Oc2ccccc21 (stereo not given) | 6.05
47 | CCc1ccc(C2CCN(CCCCNC(=O)c3ccc(NC(=O)c4ccc(Cl)cc4)cc3)CC2)c(OC)c1 | 6.10
48 | NC1CCCN(Cc2ccc(-c3ccc(-c4nc5ccccc5[nH]4)s3)cc2)C1 (stereo not given) | 6.17
49 | COc1ccc2nccc(NC(=O)C3(O)CCC(NCc4ccc5c(c4)NCCS5)CC3)c2n1 (stereo not given) | 6.22
50 | COc1ccc(CCNCC(O)COc2nccc3c(S(=O)(=O)N4CCCNCC4)cccc23)cc1OC (stereo not given) | 6.57
